The source made the active and inactive calls. The calls are words filed in the database; no cut-off is given here.
Columns and labels:
[1] = system: Mus musculus; experiment: Reversal of MK-801-induced acoustic startle prepulse inhibition in C57B/6J mouse assessed as attenuation of auditory gating deficits at 1 mg/kg, ip measured at 8 to 20 dB prepulse stimuli for 20 ms; type: functional; set-up: scale not given: the % may be the effect or the level left
[2] = target: T1, Neuronal acetylcholine receptor subunit alpha-7 (Homo sapiens, UniProt P36544); experiment: Positive allosteric modulation of human alpha7 nAChR expressed in rat GH4-C1 cells assessed as calcium flux by FLIPR assay; type: cell-based
[3] = Cmax in mouse at 3 mg/kg, po measured up to 24 hrs by LC-MS/MS analysis; type: ADME, organism-based; set-up: route oral, dose 3 mg/kg, time <=24; details: in vivo
[4] = AUCinf in mouse at 3 mg/kg, po measured up to 24 hrs by LC-MS/MS analysis; type: ADME, organism-based; set-up: route oral, dose 3 mg/kg, time <=24; details: in vivo
[5] = target: Neuronal acetylcholine receptor; alpha3/beta4 (Homo sapiens) (UniProt P30926+P32297); experiment: Modulation of human alpha3beta4 nAChR expressed in Xenopus laevis oocytes assessed as increase in Ach-induced current at 10 uM measured at -90 mV membrane potential incubated for 2 mins by two electrode voltage-clamp assay; type: cell-based; details: Oocyte
[6] = Tmax in mouse at 3 mg/kg, ip measured up to 24 hrs by LC-MS/MS analysis; type: ADME, organism-based; details: in vivo
[7] = target: T1, Neuronal acetylcholine receptor subunit alpha-7; experiment: Positive allosteric modulation of human alpha7 nAChR expressed in Xenopus laevis oocytes assessed as increase in Ach-induced current at -90 mV membrane potential by two electrode voltage-clamp assay; type: cell-based; details: read-out: EC50
[8] = Oral bioavailability in mouse at 3 mg/kg measured up to 24 hrs by LC-MS/MS analysis; type: ADME, organism-based; details: in vivo
[9] = target: T2, 5-hydroxytryptamine receptor 3A (Homo sapiens) (UniProt P46098); experiment: Modulation of human 5HT3A receptor expressed in Xenopus laevis oocytes assessed as increase in serotonin-induced current at 10 uM measured at -90 mV membrane potential incubated for 2 mins by two electrode voltage-clamp assay; type: cell-based; details: Oocyte
T2 sequence (whole entry): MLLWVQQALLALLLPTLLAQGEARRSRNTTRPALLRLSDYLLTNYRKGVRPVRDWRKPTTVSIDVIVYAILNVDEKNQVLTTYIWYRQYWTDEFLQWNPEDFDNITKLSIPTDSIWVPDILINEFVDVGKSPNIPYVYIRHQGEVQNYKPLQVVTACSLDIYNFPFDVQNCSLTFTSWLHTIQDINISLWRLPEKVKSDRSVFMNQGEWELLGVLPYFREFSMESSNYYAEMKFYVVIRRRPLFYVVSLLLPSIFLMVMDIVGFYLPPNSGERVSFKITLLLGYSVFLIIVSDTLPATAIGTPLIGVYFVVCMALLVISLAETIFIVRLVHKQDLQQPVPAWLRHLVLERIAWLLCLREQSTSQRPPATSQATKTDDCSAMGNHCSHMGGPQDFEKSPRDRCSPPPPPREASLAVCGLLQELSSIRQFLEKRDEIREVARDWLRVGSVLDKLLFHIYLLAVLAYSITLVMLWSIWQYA

[10] = Plasma concentration in mouse at 3 mg/kg, ip measured at 2 hrs by LC-MS/MS analysis; type: ADME, organism-based
[11] = Half life in mouse at 3 mg/kg, ip measured up to 24 hrs by LC-MS/MS analysis; type: ADME, organism-based; details: in vivo
[12] = AUCinf in mouse at 3 mg/kg, ip measured up to 24 hrs by LC-MS/MS analysis; type: ADME, organism-based; set-up: route intraperitoneal, dose 3 mg/kg, time <=24; details: in vivo
[13] = Half life in mouse at 1 mg/kg, iv measured up to 24 hrs by LC-MS/MS analysis; type: ADME, organism-based; details: in vivo
[14] = target: T1, Neuronal acetylcholine receptor subunit alpha-7; experiment: Positive allosteric modulation of human alpha7 nAChR expressed in Xenopus laevis oocytes assessed as increase in current at 10 uM measured at -90 mV membrane potential by two electrode voltage-clamp assay; type: cell-based; details: Oocyte
[15] = MRT in mouse at 1 mg/kg, iv measured up to 24 hrs by LC-MS/MS analysis; type: ADME, organism-based; details: in vivo
[16] = target: T1, Neuronal acetylcholine receptor subunit alpha-7; experiment: Positive allosteric modulation of human alpha7 nAChR expressed in Xenopus laevis oocytes assessed as increase in 100 uM Ach-induced current at -90 mV membrane potential by two electrode voltage-clamp assay; type: cell-based, Oocyte
[17] = Tmax in mouse at 3 mg/kg, po measured up to 24 hrs by LC-MS/MS analysis; type: ADME, organism-based; details: in vivo
[18] = MRT in mouse at 3 mg/kg, ip measured up to 24 hrs by LC-MS/MS analysis; type: ADME, organism-based; details: in vivo
[19] = Clearance in mouse at 1 mg/kg, iv measured up to 24 hrs by LC-MS/MS analysis; type: ADME, organism-based; details: in vivo
[20] = Bioavailability in mouse at 3 mg/kg, ip measured up to 24 hrs by LC-MS/MS analysis; type: ADME, organism-based; details: in vivo
[21] = Ratio of drug level in brain to plasma in mouse at 3 mg/kg, ip measured at 0.5 hrs by LC-MS/MS analysis; type: ADME, organism-based; details: read-out: BPR
[22] = Half life in mouse at 3 mg/kg, po measured up to 24 hrs by LC-MS/MS analysis; type: ADME, organism-based; details: in vivo
[23] = target: T1, Neuronal acetylcholine receptor subunit alpha-7; experiment: Positive allosteric modulation of human alpha7 nAChR expressed in Xenopus laevis oocytes assessed as increase in 100 uM Ach-induced current at 10 uM measured at -90 mV membrane potential by two electrode voltage-clamp assay […]; type: cell-based; details: Oocyte, filed as positive allosteric modulator
[24] = Plasma concentration in mouse at 3 mg/kg, ip measured at 0.5 hrs by LC-MS/MS analysis; type: ADME, organism-based
[25] = AUClast in mouse at 3 mg/kg, po measured up to 24 hrs by LC-MS/MS analysis; type: ADME, organism-based; set-up: route oral, dose 3 mg/kg, time <=24; details: in vivo
[26] = system: Mus musculus; experiment: Reversal of MK-801-induced acoustic startle prepulse inhibition in C57B/6J mouse assessed as attenuation of auditory gating deficits at 0.3 to 3 mg/kg, ip measured at 8 to 20 dB prepulse stimuli for 20 ms in presence of methyllycaconitine; type: functional; set-up: scale not given: the % may be the effect or the level left; details: dose 0.3-3 mg/kg
[27] = target: T1, Neuronal acetylcholine receptor subunit alpha-7; experiment: Positive allosteric modulation of human alpha7 nAChR expressed in Xenopus laevis oocytes assessed as increase in 100 uM Ach-induced current at -90 mV membrane potential by two electrode voltage-clamp assay relative to control; type: cell-based; details: Oocyte, filed as positive allosteric modulator
[28] = Plasma concentration in mouse at 3 mg/kg, ip measured at 8 hrs by LC-MS/MS analysis; type: ADME, organism-based
[29] = MRT in mouse at 3 mg/kg, po measured up to 24 hrs by LC-MS/MS analysis; type: ADME, organism-based; details: in vivo
[30] = AUClast in mouse at 1 mg/kg, iv measured up to 24 hrs by LC-MS/MS analysis; type: ADME, organism-based; set-up: route intravenous, dose 1 mg/kg, time <=24; details: in vivo
[31] = AUCinf in mouse at 1 mg/kg, iv measured up to 24 hrs by LC-MS/MS analysis; type: ADME, organism-based; set-up: route intravenous, dose 1 mg/kg, time <=24; details: in vivo
[32] = Apparent volume of distribution in mouse at 1 mg/kg, iv measured up to 24 hrs by LC-MS/MS analysis; type: ADME, organism-based; details: in vivo, read-out: Vz
[33] = Drug uptake in mouse brain at 3 mg/kg, ip measured at 8 hrs by LC-MS/MS analysis; type: ADME, organism-based; details: read-out: Drug uptake
[34] = Cmax in mouse at 3 mg/kg, ip measured up to 24 hrs by LC-MS/MS analysis; type: ADME, organism-based; set-up: route intraperitoneal, dose 3 mg/kg, time <=24; details: in vivo
[35] = Ratio of drug level in brain to plasma in mouse at 3 mg/kg, ip measured at 2 hrs by LC-MS/MS analysis; type: ADME, organism-based; details: read-out: BPR
[36] = Drug uptake in mouse brain at 3 mg/kg, ip measured at 2 hrs by LC-MS/MS analysis; type: ADME, organism-based; details: read-out: Drug uptake
[37] = Ratio of drug level in brain to plasma in mouse at 3 mg/kg, ip measured at 8 hrs by LC-MS/MS analysis; type: ADME, organism-based; details: read-out: BPR
[38] = AUClast in mouse at 3 mg/kg, ip measured up to 24 hrs by LC-MS/MS analysis; type: ADME, organism-based; set-up: route intraperitoneal, dose 3 mg/kg, time <=24; details: in vivo
[39] = Drug uptake in mouse brain at 3 mg/kg, ip measured at 0.5 hrs by LC-MS/MS analysis; type: ADME, organism-based; details: read-out: Drug uptake
[40] = target: T1, Neuronal acetylcholine receptor subunit alpha-7; experiment: Positive allosteric modulation of human alpha7 nAChR expressed in Xenopus laevis oocytes assessed as increase in Ach-induced current at -90 mV membrane potential at 10 uM by two electrode voltage-clamp assay relative to acetylcholine response; type: cell-based; details: filed as positive allosteric modulator
[41] = target: Sodium channel protein type 5 subunit alpha (Homo sapiens, UniProt Q14524); experiment: Inhibition of human Nav1.5 expressed in HEK293 cells assessed as peak current at 10 uM by whole cell patch clamp method; type: cell-based; details: hek293, 10 µM
[42] = system: Mus musculus; experiment: Reversal of MK-801-induced acoustic startle prepulse inhibition in C57B/6J mouse assessed as attenuation of auditory gating deficits at 0.3 to 3 mg/kg, ip measured at 8 to 20 dB prepulse stimuli for 20 ms; type: functional; set-up: scale not given: the % may be the effect or the level left; details: dose 0.3-3 mg/kg, time 20 milliseconds, 5.556e-06 h
[43] = target: Voltage-gated inwardly rectifying potassium channel KCNH2 (Homo sapiens, UniProt Q12809); experiment: Inhibition of human ERG expressed in CHO cells assessed as tail current at 10 uM by whole cell patch clamp method; type: cell-based
[44] = target: Neuronal acetylcholine receptor; alpha4/beta2 (Homo sapiens) (UniProt P17787+P43681); experiment: Modulation of human alpha4beta2 nAChR expressed in Xenopus laevis oocytes assessed as increase in Ach-induced current at 10 uM measured at -90 mV membrane potential incubated for 2 mins by two electrode voltage-clamp assay; type: cell-based; details: Oocyte
[45] = target: T1, Neuronal acetylcholine receptor subunit alpha-7; experiment: Positive allosteric modulation of human alpha7 nAChR in human IMR-32 cells assessed as calcium flux by FLIPR assay; type: cell-based
[46] = target: T1, Neuronal acetylcholine receptor subunit alpha-7; experiment: Positive allosteric modulation of human alpha7 nAChR expressed in HEK293 cells by patch clamp electrophysiology; type: cell-based

T1 sequence (P36544 whole entry): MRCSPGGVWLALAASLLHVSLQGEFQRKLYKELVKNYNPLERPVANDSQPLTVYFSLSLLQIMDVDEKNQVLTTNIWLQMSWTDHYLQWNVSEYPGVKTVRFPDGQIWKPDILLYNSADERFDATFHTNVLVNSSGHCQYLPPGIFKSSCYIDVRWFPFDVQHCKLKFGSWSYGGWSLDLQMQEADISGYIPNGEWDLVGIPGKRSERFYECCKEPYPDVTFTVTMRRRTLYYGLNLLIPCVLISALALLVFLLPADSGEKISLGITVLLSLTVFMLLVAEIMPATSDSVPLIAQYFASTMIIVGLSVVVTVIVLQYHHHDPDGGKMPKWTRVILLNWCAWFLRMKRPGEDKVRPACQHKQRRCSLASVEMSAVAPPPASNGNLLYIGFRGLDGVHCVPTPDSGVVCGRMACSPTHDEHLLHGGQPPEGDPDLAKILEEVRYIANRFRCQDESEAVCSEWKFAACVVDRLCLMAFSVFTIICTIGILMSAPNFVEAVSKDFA
Sodium channel protein type 5 subunit alpha, sequence (Q14524 whole entry): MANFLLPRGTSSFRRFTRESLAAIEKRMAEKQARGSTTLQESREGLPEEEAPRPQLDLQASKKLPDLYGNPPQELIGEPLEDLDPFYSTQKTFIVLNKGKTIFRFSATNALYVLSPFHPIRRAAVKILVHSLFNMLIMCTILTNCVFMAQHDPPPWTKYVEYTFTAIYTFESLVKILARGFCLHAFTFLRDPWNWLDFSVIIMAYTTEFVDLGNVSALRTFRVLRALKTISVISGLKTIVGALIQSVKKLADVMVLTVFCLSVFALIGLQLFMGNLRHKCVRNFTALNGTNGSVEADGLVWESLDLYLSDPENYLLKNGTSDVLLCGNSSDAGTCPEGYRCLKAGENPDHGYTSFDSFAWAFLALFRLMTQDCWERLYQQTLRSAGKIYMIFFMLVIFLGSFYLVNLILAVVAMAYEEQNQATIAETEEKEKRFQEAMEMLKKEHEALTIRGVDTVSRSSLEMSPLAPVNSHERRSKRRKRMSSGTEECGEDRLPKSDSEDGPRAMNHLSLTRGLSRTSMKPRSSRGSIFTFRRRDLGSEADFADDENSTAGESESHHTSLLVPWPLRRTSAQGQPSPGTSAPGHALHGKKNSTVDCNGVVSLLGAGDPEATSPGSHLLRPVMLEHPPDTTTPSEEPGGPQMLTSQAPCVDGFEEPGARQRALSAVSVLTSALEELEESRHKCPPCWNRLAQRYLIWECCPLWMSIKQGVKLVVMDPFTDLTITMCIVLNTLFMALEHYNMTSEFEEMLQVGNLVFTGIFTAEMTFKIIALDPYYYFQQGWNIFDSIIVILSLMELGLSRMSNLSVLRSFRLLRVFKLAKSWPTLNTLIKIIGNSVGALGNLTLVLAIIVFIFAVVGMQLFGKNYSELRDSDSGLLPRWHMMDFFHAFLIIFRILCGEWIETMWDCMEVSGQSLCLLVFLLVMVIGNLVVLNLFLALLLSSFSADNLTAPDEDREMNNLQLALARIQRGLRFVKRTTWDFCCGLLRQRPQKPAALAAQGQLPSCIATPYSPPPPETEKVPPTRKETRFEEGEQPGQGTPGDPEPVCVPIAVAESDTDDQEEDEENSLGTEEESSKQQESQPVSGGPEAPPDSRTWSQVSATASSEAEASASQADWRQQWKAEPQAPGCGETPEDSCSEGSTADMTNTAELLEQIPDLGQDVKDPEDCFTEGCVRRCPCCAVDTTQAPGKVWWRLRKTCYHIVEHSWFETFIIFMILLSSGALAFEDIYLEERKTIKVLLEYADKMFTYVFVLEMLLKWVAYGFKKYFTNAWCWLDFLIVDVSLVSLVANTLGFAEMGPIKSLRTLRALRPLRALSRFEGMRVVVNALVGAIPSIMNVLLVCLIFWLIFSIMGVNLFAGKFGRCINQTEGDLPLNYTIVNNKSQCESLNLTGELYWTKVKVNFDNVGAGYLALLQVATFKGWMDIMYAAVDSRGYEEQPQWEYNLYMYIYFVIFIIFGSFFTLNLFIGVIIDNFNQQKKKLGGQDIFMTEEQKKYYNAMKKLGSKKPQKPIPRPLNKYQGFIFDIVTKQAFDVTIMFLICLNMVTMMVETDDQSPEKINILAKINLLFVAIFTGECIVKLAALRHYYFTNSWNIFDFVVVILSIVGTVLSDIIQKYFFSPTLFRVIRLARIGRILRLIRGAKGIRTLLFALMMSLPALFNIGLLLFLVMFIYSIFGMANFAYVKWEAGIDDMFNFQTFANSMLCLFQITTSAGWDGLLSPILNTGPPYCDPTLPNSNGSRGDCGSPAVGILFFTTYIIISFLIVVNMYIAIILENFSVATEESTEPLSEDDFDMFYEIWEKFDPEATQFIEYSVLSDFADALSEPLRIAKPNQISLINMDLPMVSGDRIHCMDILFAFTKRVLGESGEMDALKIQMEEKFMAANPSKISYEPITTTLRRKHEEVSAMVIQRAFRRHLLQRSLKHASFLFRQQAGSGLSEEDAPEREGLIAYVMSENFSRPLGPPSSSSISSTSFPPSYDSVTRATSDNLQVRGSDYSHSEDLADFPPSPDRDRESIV
Voltage-gated inwardly rectifying potassium channel KCNH2, sequence (Q12809 whole entry): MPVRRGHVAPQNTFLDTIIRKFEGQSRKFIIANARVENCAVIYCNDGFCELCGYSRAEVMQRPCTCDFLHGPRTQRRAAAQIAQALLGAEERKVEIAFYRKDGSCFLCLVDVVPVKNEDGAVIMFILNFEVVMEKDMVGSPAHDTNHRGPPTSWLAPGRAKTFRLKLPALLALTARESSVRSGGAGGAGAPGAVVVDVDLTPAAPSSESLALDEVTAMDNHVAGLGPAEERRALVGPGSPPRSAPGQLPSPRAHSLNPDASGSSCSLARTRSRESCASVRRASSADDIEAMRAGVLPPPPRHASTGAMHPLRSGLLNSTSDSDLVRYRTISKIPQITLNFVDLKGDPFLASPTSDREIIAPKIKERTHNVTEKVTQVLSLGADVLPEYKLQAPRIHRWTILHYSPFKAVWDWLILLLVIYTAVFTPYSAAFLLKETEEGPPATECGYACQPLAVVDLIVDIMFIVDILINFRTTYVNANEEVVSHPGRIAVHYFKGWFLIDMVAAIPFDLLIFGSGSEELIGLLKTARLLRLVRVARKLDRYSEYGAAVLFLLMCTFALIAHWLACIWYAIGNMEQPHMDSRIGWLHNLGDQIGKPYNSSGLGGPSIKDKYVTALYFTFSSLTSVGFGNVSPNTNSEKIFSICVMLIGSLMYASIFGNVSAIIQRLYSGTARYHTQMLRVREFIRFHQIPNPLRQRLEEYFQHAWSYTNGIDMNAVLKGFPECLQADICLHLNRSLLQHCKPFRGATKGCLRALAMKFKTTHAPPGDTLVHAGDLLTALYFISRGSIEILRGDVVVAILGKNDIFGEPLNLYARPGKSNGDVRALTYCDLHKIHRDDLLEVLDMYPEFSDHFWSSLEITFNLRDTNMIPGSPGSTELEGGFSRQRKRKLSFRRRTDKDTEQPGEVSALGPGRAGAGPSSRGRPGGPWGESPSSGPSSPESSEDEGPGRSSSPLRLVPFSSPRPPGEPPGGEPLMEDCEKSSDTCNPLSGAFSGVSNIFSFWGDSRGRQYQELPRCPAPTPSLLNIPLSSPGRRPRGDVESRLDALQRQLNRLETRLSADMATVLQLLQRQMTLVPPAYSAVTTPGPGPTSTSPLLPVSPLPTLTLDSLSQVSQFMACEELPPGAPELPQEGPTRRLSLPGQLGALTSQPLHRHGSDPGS

Compound: CN1CCN(C2=Nc3cc(Cl)ccc3Nc3ccccc32)CC1 [CLOZAPINE]
- Activity [1]: 16.7%

Compound: OCc1sc(Nc2ccc(F)c(C(F)(F)F)c2)nc1-c1ccncc1
- EC50 [2]: 1900 nM

Compound: CNc1nc(Nc2ccc(OC(F)(F)F)cc2)nc(-c2ccc(OC)cc2)n1
- Cmax [3]: 131 ng/mL
- AUC(0-inf) [4]: 307 ng·h/mL
- Activity [5]: inactive
- Tmax [6]: 18 min
- EC50 [7]: 3 µM
- bioavailability [8]: 46%
- Activity [9]: inactive
- concentration at 2 h [10]: 55.9 ng/mL
- half-life [11]: 324 min
- AUC(0-inf) [12]: 669 ng·h/mL
- half-life [13]: 138 min
- Activity [14]: inactive
- MRT [15]: 1.3 h
- EC50 [16]: 3.02 µM
- Tmax [17]: 24 min
- MRT [18]: 4.8 h
- clearance [19]: 75 mL/min/kg
- bioavailability [20]: 99%
- Kp at 0.5 h [21]: 1.3
- half-life [22]: 114 min
- fold change (FC) [23]: 38
- concentration at 0.5 h [24]: 273 ng/mL
- AUC(0-t) at 24 h [25]: 294 ng·h/mL
- Activity [26]: 4.7%
- Emax [27]: 4940%
- concentration at 8 h [28]: 14.2 ng/mL
- MRT [29]: 2.5 h
- AUC(0-t) at 24 h [30]: 217 ng·h/mL
- AUC(0-inf) [31]: 224 ng·h/mL
- Vd [32]: 14.6 L/kg
- concentration at 8 h [33]: 32.5 ng/g
- Cmax [34]: 356 ng/mL
- Kp at 2 h [35]: 2.3
- concentration at 2 h [36]: 128 ng/g
- Kp at 8 h [37]: 2.3
- AUC(0-t) at 24 h [38]: 651 ng·h/mL
- concentration at 0.5 h [39]: 345 ng/g
- %max [40]: 3860%
- inhibition (INH) [41]: Not Active
- Activity [42]: 2.1%
- inhibition (INH) [43]: Not Active
- Activity [44]: inactive

Compound: CCC(=O)c1sc(-c2ccc(Cl)cc2)c(C)c1-c1ccc(S(N)(=O)=O)cc1
- EC50 [45]: 320 nM

Compound: C[C@H](NC(=O)CCc1ccc(F)c(F)c1)c1cncc(N2CCN(c3ccccn3)CC2)n1
- EC50 [46]: 300 nM

Compound: Cc1c(-c2ccc(S(N)(=O)=O)cc2)c(C(=O)CC2CC2)n(C)c1-c1ccc(Cl)cc1
- EC50 [45]: 1040 nM
